Results taken from patent US5288758A, “New urea derivatives, their preparation and their application in therapy” (priority 1991, dated 1994).

Target: acetylcholinesterase (Homo sapiens, UniProt P22303)
Assay: biochemical
Conditions: method of Ellman et al., Biochem. Pharmacol. 7, 88-95 (1961); read-out: Inhibition of acetylcholinesterase activity, IC50

Sequence of acetylcholinesterase (P22303 32-614): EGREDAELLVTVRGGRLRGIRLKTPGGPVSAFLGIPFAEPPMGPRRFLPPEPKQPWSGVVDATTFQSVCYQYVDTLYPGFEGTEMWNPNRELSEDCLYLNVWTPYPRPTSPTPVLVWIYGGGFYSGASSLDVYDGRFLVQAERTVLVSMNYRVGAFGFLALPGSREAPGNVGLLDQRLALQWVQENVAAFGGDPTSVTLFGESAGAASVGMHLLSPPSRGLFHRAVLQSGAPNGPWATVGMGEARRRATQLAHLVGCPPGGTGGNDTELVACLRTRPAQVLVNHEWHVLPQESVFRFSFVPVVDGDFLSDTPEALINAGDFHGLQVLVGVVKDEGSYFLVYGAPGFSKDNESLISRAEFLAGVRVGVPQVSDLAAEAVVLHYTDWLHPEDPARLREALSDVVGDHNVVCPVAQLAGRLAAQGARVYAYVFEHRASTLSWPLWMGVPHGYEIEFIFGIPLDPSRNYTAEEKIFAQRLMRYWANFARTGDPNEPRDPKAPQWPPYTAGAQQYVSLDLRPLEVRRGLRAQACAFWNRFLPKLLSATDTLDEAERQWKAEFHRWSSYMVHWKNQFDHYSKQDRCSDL

Point of comparison: `COc1ccc(C(=O)NC(=S)NCCOCCN(C)Cc2ccccc2)cc1` [Compound 11], IC50 26 nM. Against it:
- CN(CCCCCNC(=S)NC(=O)c1ccccc1)CC1CCCCC1 [Compound 5, 1-Benzoyl-3-[5-(N-cyclohexylmethyl-N-methylamino)pentyl]thiourea] — 1.9-fold higher, 50 nM
- CN(CCOCCNC(=S)NC(=O)c1ccc(Cl)cc1)Cc1ccccc1 [Compound 12] — within 1.5-fold, 30 nM
- CN(CCOCCNC(=S)NC(=O)c1cccc([N+](=O)[O-])c1)Cc1ccccc1 [Compound 13] — 1.7-fold lower, 15 nM
- CN(CCOCCNC(=S)NC(=O)c1ccc(Cl)c(Cl)c1)Cc1ccccc1 [Compound 14] — 2.1-fold higher, 55 nM
- CN(CCOCCNC(=S)NC(=O)c1ccc2ccccc2c1)Cc1ccccc1 [Compound 16] — 3.8-fold higher, 100 nM
